In patent US20030161893A1, “PTPase inhibitors and methods of using the same” (priority 2001, published 2003):

What was measured:
SHP-1 = target: T1, SHP-1 (Mus musculus, UniProt P29351); assay: In vitro PTPase assay, GST/SHP-1 fusion protein; type: biochemical
T1 construct: made in house
Procedure: In vitro PTPase activities were measured using the commercial protein tyrosine phosphatase assay kit (Upstate Biotechnology, Inc. (“UBI”)) following established procedure known to one of skill in the art. […] 100 μl of Malachite Green solution was added and incubated for 5 minutes, and the absorbance at 660 nm was measured after 5 minutes.
The beads were then either subjected to in vitro PTPase assays or washed 3 times in Tris buffer then subjected to in vitro PTPase assays.
Briefly, individual PTPases (0.1 μg/reaction) in 50 μL of PTPase buffer (50 mM Tris, pH 7.4) were incubated at 22° C. for 10 minutes or as indicated in the absence or presence of inhibitory compounds. […] […] […] Relative PTPase activities were calculated based on the formula: (PTPase activity in the presence of an inhibitory compound/PTPase activity in the absence of the compound)×100%. To assess the reversibility of PTPase inhibition, GST fusion proteins of the PTPases bound on glutathione beads (Pharmacia) were pre-incubated with cold Tris buffer (50 mM Tris, pH 7.0) or Tris buffer containing the inhibitor at 4° C. for 30 minutes. The beads were then washed three times in cold Tris buffer or not washed prior to subjecting to in vitro PTPase assays.

NB4 cells = assay: NB4 cell growth (MTT), cell cycle and Annexin V; type: cell-based, human
Procedure: The NB4 cell line (Lanotte et al., Blood 77, 1080 (1991)) was a gift from Dr. Dan Lindner of the Cleveland Clinic Foundation. […] and U937 cell lines were purchased from American Type Culture Collection (Rockville, Md.). These human […] cell lines were maintained in RPMI 1640 medium supplemented with 10% fetal calf serum (FCS). For cell proliferation assays, cells were cultured at 37° C. in 10% FCS medium containing various amounts of sodium stibogluconate for 6 days. The cell numbers in the cultures were determined by an MTT assay as described previously in Mosmann, J. Imunol. Methods 65, 55 (1983).
The cell cycle was analyzed by flow cytometry after 3 days of culture of NB4 cells in the absence or presence of sodium stibogluconate (250 μg/ml) or ATRA (1 μM). Briefly, the cells were fixed in cold ethanol and incubated for 30 minutes at 4° C. in the dark with a solution of […] propidium iodide, 1 mg/ml RNase and 0.1% NP-40. Analysis was performed immediately after staining using the CELLFIT program (Becton Dickinson, Mountain View, Calif.).
Annexin V staining of exposed membrane phospholipid phosphatidylserine (PS) was done using the Annexin V assay kit (Pharmingen, San Diego, Calif.). Briefly, NB4 cells were cultured in the 10% FCS RPMI 1640 medium in the absence or presence of sodium stibogluconate (250 μg/ml) or ATRA (1 μM) for 3 days. Cells were then washed in PBS twice and stained in binding buffer (10 mM Hepes, pH 7.4; 140 mM NaCl; 2.5 mM CaCl2) containing Annexin V-FITC and propidium iodide for 15 min. The reaction was stopped by adding 10 volumes of binding buffer and analyzed by FACS (Becton Dickinson Facsvantage).

AML-3 cells = assay: AML-3 cell differentiation; type: cell-based, human
U266 cells = assay: Cell proliferation assay (MTT), U266 multiple myeloma cells; type: cell-based, human; conditions: day 6
Procedure: (§1) For cell proliferation assays, cells were grown in 10% FCS culture medium containing various amounts of IFNs and/or sodium stibogluconate in 96 well plates and cultured at 37° C. for 3 or 6 days as indicated. The numbers of viable cells in proliferation assays were determined by MTT assays as described in Phatak et al., J. Immunol. 167, 3391 (2001).

WM9 cells = assay: Cell proliferation assay (MTT), WM9 melanoma cells; type: cell-based, human
Procedure: as §1
Dose response curves were generated for each drug alone, and also the combinations. Median effect plots were generated for IFNs alone, sodium stibogluconate alone, and the combination. The combination index (CI) was determined and plotted vs. fraction affected (FA). Data were analyzed in both modes, mutually exclusive and mutually nonexclusive. The interaction between two mutually nonexclusive drugs is described by the Equation CI=D1/D×1+D2/D×2+D1D2/D×1D×2, where D×1 and D×2 are the doses of drug 1 and drug 2 that are required to inhibit growth×%. […] When CI<1, drugs are synergistic, when CI=1, drugs are additive, and when CI>1, drugs are antagonistic.

DU145 cells = assay: Cell proliferation assay (MTT), DU145 prostate cancer cells; type: cell-based, human
Procedure: as §1
(§2) NIH3T3 (Yi, et al., Blood 85, 87 (1995)), WM9 (Forsberg, et al., Proc. Nat. Acad Sci. USA 90, 393 (1993)), DU145 (Mickey, et al., Cancer Res. 37, 4049 (1977)), LoVo (Drewinko, et al., Cancer Res. 36, 467 (1976)), HEY (Buick, et al., Cancer Res. 45, 3668 (1985)), U251 (Yoshida, et al., Cancer 50, 410 (1982)), A549 (Giard, et al., J. Natl. Cancer Inst. 51, 1417 (1973)) and SK-N-SH (Helson, et al., Cancer Res. 35, 2594 (1975)) cell lines have been described and were cultured in RPMI 1640 supplemented with 10% fetal calf serum (FCS). For measurement of sodium stibogluconate effects on cell growth in vitro, cells were cultured in the absence (−) or presence (+) of various amounts of sodium stibogluconate for 6 days with viable cells quantified by MTT assays (Mosmann, J. Imunol. Methods 65, 55 (1983)). Percentages of growth inhibition by sodium stibogluconate were calculated (+/−×%).

HEY cells = assay: Cell growth assay (MTT), HEY ovarian cancer cells; type: cell-based, human; conditions: 100 μg/ml, day 6
Procedure: as §2

[1] = cited from earlier work
[2] = 50 μg/ml and 100 μg/ml, day 6 culture

T1 sequence (P29351 whole entry, the tested form may be a part): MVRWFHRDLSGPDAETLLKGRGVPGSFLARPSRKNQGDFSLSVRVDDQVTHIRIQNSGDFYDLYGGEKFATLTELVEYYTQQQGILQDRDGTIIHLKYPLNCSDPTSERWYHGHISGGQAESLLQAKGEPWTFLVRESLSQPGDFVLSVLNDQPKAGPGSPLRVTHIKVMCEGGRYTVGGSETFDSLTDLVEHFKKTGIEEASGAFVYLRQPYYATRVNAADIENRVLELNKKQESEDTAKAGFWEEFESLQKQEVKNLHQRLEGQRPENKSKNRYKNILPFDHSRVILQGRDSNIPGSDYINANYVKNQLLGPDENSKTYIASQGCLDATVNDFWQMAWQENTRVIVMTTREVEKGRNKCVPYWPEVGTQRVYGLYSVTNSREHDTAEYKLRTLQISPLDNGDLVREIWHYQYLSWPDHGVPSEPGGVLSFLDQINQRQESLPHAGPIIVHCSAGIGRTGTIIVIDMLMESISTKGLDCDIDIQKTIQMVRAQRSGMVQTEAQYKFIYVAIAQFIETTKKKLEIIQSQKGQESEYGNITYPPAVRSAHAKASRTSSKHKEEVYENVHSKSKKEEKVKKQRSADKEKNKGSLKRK

## O.O.O.O.O.O.O.O.O.O=C([O-])[C@@H]1[O][Sb]2([O-])([O][Sb]34([OH])[O][C@H]([C@H](O)CO)[C@H]([O]3)[C@H](C(=O)[O-])[O]4)[O][C@H]([C@H](O)CO)[C@@H]1[O]2.[Na+].[Na+].[Na+] [sodium stibogluconate]
SHP-1; pNPP substrate
  dephosphorylation of pNPP by SHP-1, SHP-2 and PTP1B: similarly inhibited
SHP-1; parental mixture at Sb concentration of 10 μg/ml
  activity against recombinant SHP-1 of HPLC fractions and parental mixture: inactivated SHP-1
SHP-1; pre-incubated at 4° C. 30 minutes, beads washed 3 times
  reversibility of SHP-1 inhibition by washing: not affected by washing
NB4 cells; 250 μg/ml, 6 days
  Annexin V staining of NB4 cells: stained positive by Annexin V
NB4 cells; 12.5-400 μg/ml, MTT
  proliferation of NB4 cells: markedly inhibited
NB4 cells; 3 days, sodium stibogluconate 250 μg/ml, ATRA 1 μM
  cell cycle of NB4 cells: significant increase of cells at S phase
AML-3 cells
  differentiation of AML-3 cells: inducing differentiation
U266 cells
  IFN-alpha-induced growth inhibition of U266 cells in presence of drug: augmentation of IFN-alpha-induced cell growth inhibition
  growth inhibition of U266 cells by the drug by itself: substantial growth inhibition activity
WM9 cells; [2]
  killing of WM9 cells, single agent: killed all cells
WM9 cells; day 6
  IFN-alpha-induced growth inhibition of WM9 in presence of drug: augmented
WM9 cells; day 6, most dramatic at 12.5-50 μg/ml and IFNs 12.5-50 units/ml
  IFN-alpha- and IFN-beta-induced growth inhibition of WM9 in presence of drug: greatly enhanced
DU145 cells; [2]
  killing of DU145 cells, single agent: killed all cells
DU145 cells; 100 μg/ml, day 6
  cell killing, DU145: near-complete cell killing
DU145 cells; day 6
  IFN-alpha-induced growth inhibition of DU145 in presence of drug: augmented
HEY cells
  cell killing, HEY: near-complete cell killing
[1]; 10-20 mg/kg/day
  serum levels at standard dosage for leishmaniasis treatment: ≥ 10000 ng/mL
[1]; human, in vivo
  clinical side effects at higher dosages: reversible nonspecific ECG changes and renal defects
  clinical tolerability at therapeutic dosages: well tolerated
